GI50 and TGI data for 9 molecules are collected here from PubChem BioAssay (NCI).

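Interpolation was linear, between the two tested concentrations surrounding the appropriate level; five concentrations were tested over 48 hours in 96-well plates. GI50 is the concentration that inhibits growth by half. The concentration for full growth arrest is given as TGI.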 A value given as a limit tells only on which side of the number the result lay.

Holding throughout (assay): NCI-60 cell line screen, 48 h
Experiment [1] relates to BT-549 breast.
Experiment [2] relates to TK-10 renal.
Experiment [3] relates to HT29 colon.
The test system of experiment [4] is SF-295 CNS.
Experiment [5] has as its system EKVX NSCLC.
Experiment [6] relates to NCI-H23 lung.
Experiment [7] has as its system RXF 393 renal.
Experiment [8] has as its system SF-268 CNS.
Experiment [9] deals with SF-539 CNS.
Experiment [10] has as its system HOP-62 NSCLC.

For `N#Cc1c(-c2ccc(Cl)cc2)n([O-])c2ccccc2[n+]1=O`, the GI50 in experiment [1] was 23.2 µM; in experiment [2], 11.7 µM; in experiment [3], 17.2 µM; in experiment [4], 16.4 µM; in [5], 5.63 µM; in experiment [6] it was 16.2 µM. Moreover, the GI50 in [7] was 11 µM; in experiment [8] it was 14.6 µM; in experiment [9] it was 17.9 µM; in experiment [10] it was 16.7 µM. The TGI in experiment [1] is 52.3 µM; in experiment [2] it was 24.6 µM; in [3], 42.2 µM; in experiment [4] it was 30.3 µM; in experiment [5] it was 20.5 µM; in experiment [6], 31.3 µM. The TGI in experiment [7] amounted to 33.2 µM; in experiment [8], 33.8 µM; in experiment [9], 36 µM; in experiment [10], 30.9 µM.
Consider `COc1ccc(N2CCN(CC(=O)N3CCN(c4nnc(-c5ccc(Cl)cc5)c(-c5ccc(Cl)cc5)n4)CC3)CC2)cc1`, for which the GI50 is 4.83 µM in experiment [1]; 9.18 µM in [2]; 4.03 µM in experiment [3]; 7.09 µM in [4]; more than 100 µM in experiment [5]; 35.9 µM in experiment [6]. The GI50 was 3.98 µM in experiment [7], more than 100 µM in experiment [8], 3.66 µM in [9] and more than 100 µM in [10]. The TGI in [1] is more than 100 µM; in [2], more than 100 µM; in experiment [3], 43.2 µM; in experiment [4], more than 100 µM; in experiment [5], more than 100 µM; in experiment [6], more than 100 µM. Besides, the TGI was 23.7 µM in [7], more than 100 µM in experiment [8], 17.3 µM in [9] and more than 100 µM in experiment [10].
`Cn1c(N)c(N=Nc2ccc(S(N)(=O)=O)cc2)c(=O)n(C)c1=O`: the TGI in experiment [1], in experiment [2], in [3], in experiment [4], in experiment [5] and in experiment [6] was more than 100 µM each time. Further, the TGI in experiment [7], in experiment [8], in experiment [9] and in experiment [10] was more than 100 µM throughout.
`O=C(NC(c1ccccc1)C(O)C(=O)OCc1ccc2c(c1)C(=O)c1ccccc1C2=O)c1ccccc1` (stereo not drawn): the TGI in [1] was more than 100 µM; in experiment [2] it was 53.2 µM; in experiment [3], more than 85.2 µM; in experiment [4] it was 69.4 µM; in experiment [5] it was more than 83.1 µM; in [6], 34.5 µM. Further, the TGI is 8.57 µM in [7], 70.1 µM in [8], 20.6 µM in [9] and 9.82 µM in [10].
With `CC(C)(O)C1CC(=O)C(C)(C2C(O)CC3(C)C4CC=C5C(CCC(O)C5(C)C)C4(C)C(=O)CC23C)O1` (stereo not drawn), the TGI in experiment [1], in experiment [2], in [3], in [4], in [5] and in experiment [6] was more than 100 µM each time. The TGI in [7], in experiment [8], in experiment [9] and in [10] was more than 100 µM throughout.
As to `N#CC1=C(N)Oc2c(ccc3ccccc23)C1c1ccccc1Cl` (stereo not drawn), the GI50 in [1] is 1.2 µM; in experiment [2] it was 4.95 µM; in [3] it was 0.362 µM; in experiment [4] it was 0.233 µM; in [5], 0.652 µM; in experiment [6], 0.474 µM. The GI50 is 0.238 µM in experiment [7], 1.11 µM in experiment [8], 0.233 µM in experiment [9] and 0.374 µM in [10]. The TGI was 7.74 µM in experiment [1]; 44.1 µM in experiment [2]; 12.6 µM in [3]; 11.3 µM in experiment [4]; 22.2 µM in experiment [5]; 17.3 µM in experiment [6]. Further, the TGI in experiment [7] came to 18.6 µM; in experiment [8], 15.5 µM; in experiment [9], 0.792 µM; in experiment [10] it was 17.3 µM.
`O=C1c2cccc3cc4ccccc4c(c23)C(=O)N1CCCNCCNCCCN1C(=O)c2cccc3cc4ccccc4c(c23)C1=O`: the TGI in [1] came out at 2.4 µM; in experiment [2], 2.18 µM; in experiment [3] it was 0.555 µM; in [4], 1.64 µM; in experiment [5], 2.37 µM; in experiment [6] it was 1.77 µM. The TGI in experiment [7] is 1.58 µM; in experiment [8] it was 2.18 µM; in experiment [9], 1.45 µM; in [10], 1.72 µM.
Consider `Cc1nc2cc(NC(=O)CN3CCN(CCN4C(=O)c5cccc6cccc(c56)C4=O)CC3)ccc2s1`, for which the GI50 in experiment [1] is 4.86 µM; in experiment [2] it was 7.91 µM; in [3], 3.39 µM; in experiment [4] it was 3.48 µM; in experiment [5], 7.88 µM; in experiment [6], 6.6 µM. For the same molecule, the GI50 in experiment [7] is 5.46 µM; in [8], 5.01 µM; in experiment [9], 7.59 µM; in experiment [10], 3.83 µM. Besides, the TGI in experiment [1] is 24.1 µM; in [2] it was 21.7 µM; in experiment [3] it was 19.6 µM; in experiment [4], more than 100 µM; in experiment [5], more than 100 µM; in [6] it was 38.2 µM. In addition, the TGI in experiment [7] is 25.4 µM; in experiment [8], 24.9 µM; in experiment [9], more than 100 µM; in [10], 15.1 µM.
Turning to `Cc1nn(-c2ccccc2)c2ncc3c(c12)C(=O)N(Cc1ccccc1)C3=O`, the GI50 in experiment [1] was 4.23 µM; in experiment [3], more than 100 µM; in experiment [4], 3.14 µM; in experiment [5], 5.64 µM; in experiment [6], 9.64 µM; in [7], 6.67 µM. For the same molecule, the GI50 in experiment [8] was 7.66 µM; in [9], 12.2 µM; in experiment [10], 3.73 µM. The TGI in [1] is 38.6 µM; in experiment [3], more than 100 µM; in experiment [4], 10.7 µM; in experiment [5] it was more than 100 µM; in [6], 66.1 µM; in experiment [7], 38.3 µM. Moreover, the TGI in [8] stood at 66.5 µM; in [9] it was 56.7 µM; in [10], 13.8 µM.
